Reference: publication PMC12735834, “Novel Trinorditerpene from Dysoxylum parasiticum (Osbeck) Kosterm: Leaf Extract with Cytotoxic, Antioxidant and α-Glucosidase Inhibitory Activities” (Molecules, 2025)

Target: α-glucosidase
Assay: colorimetric p-NPG hydrolysis assay, […] nm, triplicate
Assay type: biochemical, Saccharomyces cerevisiae

Work on “12-(3-carboxyfuran-2-yl)-trinorlabda-5,9-dien-15-oic acid [parasitic acid]” yielded an IC50 of 36.29 ± 1.06 µg/mL.
